{"source": "patent US12018327B2", "about": "“Methods and compositions relating to epoxide hydrolase genes” (The Regents of the University of California, priority 2018, dated 2024)", "key": {"CRA-challenged mice": {"tested_on": "CRA-challenged mice", "assay": "Cockroach antigen (CRA) airway sensitization and challenge model", "type": "in vivo", "conditions": "for frequency of lung resident alveolar macrophages (CD11c+CD11b+F4/80+Siglec-F+): compared to vehicle treated", "procedure": "Six-week-old female C57B6 mice were obtained from Jackson Laboratories (Sacramento, CA). Mice were treated on days 1, 2, 3, 14, and 21 with 30 mg kg^−1 12,13 DiHOME solubilized in 10% DMSO or vehicle (10% DMSO) by peritoneal injection. Three hours after injection, mice were challenged intra-tracheally with either PBS or CRA (20,000 PNU mL^−1; Greer, Lenoir, NC). Twenty-four hours after the final challenge mice were anesthetized, injected retro-orbitally with 100 μL CD45-APC (1:10), allowed to recover from anesthesia, and subsequently sacrificed. Lungs and plasma were collected. Serum was isolated, and serum IgE levels were measured using a Mouse IgE ELISA Max kit (Biolegend, San Diego, CA).\nLungs were sent to the Mouse Pathology Core at UCSF for H&E staining of paraffin-embedded tissue sections. Two bronchioles and two vessels from each stained tissue section were scored on a 0-4 scale with 0, representing structures with no inflammatory infiltrates; 1, representing few inflammatory cells; 2, representing a ring 1 cell-layer wide; 3, representing a ring 2-4 cells wide; and 4, representing a ring of inflammatory cells more than 4 cells wide. Each structure was scored by two blinded-individuals, and scores were averaged for each animal. Cell counts were determined for each structure. In brief, the ImageJ freehand selection tool was used to trace the perimeter of each bronchiole and vessel. The area extending beyond the perimeter of the vessel was cleared, and the color threshold of the image was adjusted using the default method with the following parameters: hue=0-255, saturation=0-255, brightness=130-255, threshold color=white, background=dark, color space=HSB. The image was converted to an 8-bit grey scale, and the threshold was adjusted using the B&W defaults and a range of 0-150. Counts were outlined and summarized using the analyze particles window (size=0-infinity, circularity=0.0-1.00).\nLung cell subsets were assessed by flow cytometry. Lung tissue was manually dissected, digested with 5 mg per sample collagenase (Sigma-Aldrich, St. Louis, MO), and passed through a […] filter to generate single cell suspensions. […] Gating strategy can be found in FIG. 5C. Regulatory T cells were identified as CD3+CD4+CD25+FoxP3+ cells. The human T cell gating strategy was also applied to mouse lungs. A representative flow plot can be found in FIG. 5D.\nLung tissue was preserved in RNAlater (Ambion, Foster City, CA). Preserved lung tissue was homogenized in Lysing Matrix E Tubes using a FastPrep 24 Homogenizer (MP Biomedicals, Santa Ana, CA) and extracted using an RNAeasy Mini Kit (Qiagen, Germantown, MD). qPCR was performed on lung tissue, as described above, to evaluate expression of IL1α, IL1β, and TNF relative to GAPDH."}, "[1]": {"assay": "Quantification of 12,13 DiHOME in lungs and plasma by LC-MS after peritoneal injection", "type": "in vivo, mice", "conditions": "30 mg kg^−1 peritoneal, vs vehicle", "procedure": "For quantification of 12,13 DiHOME in the lungs and plasma, six-week-old female C57B6 mice were purchased from Jackson Laboratories (Sacramento, CA) and treated with 30 mg kg^−1 12,13 DiHOME solubilized in 10% DMSO or vehicle (10% DMSO) by peritoneal injection. Three hours after a single injection mice were sacrificed, and lung tissue and plasma were collected and frozen immediately in liquid nitrogen. 12,13 DiHOME was extracted from tissue and plasma using an established solid phase extraction protocol. In brief, flash frozen tissue was massed and added to a Lysing Matrix E Tube (MP Biomedicals, Santa Ana, CA) containing 1 mL of methanol, 10 μL 0.2 mg mL^−1 BHT/EDTA, and 1.25 ng 12,13 DiHOME-D4 (Cayman Chemical, Ann Arbor, MI) then homogenized as described above. Tissue samples were spun for 10 minutes at 2125×g, and supernatant was transferred to a falcon tube containing 19 mL deionized water to generate a 5% methanol solution. Plasma samples were thawed on ice, and 10 μL 0.2 mg mL^−1 BHT/EDTA and 1.25 ng 12,13 DiHOME-D4 were added to 250 μL of thawed plasma. All samples were extracted using a Waters Oasis HLB Cartridges (60 mg of sorbent, […] particle size; Waters, Milford, MA) as previously described. […]"}, "[2]": {"conditions": "30 mg kg^−1 peritoneal, CRA-challenged, vs vehicle treated PBS or CRA challenged"}, "[3]": {"conditions": "CRA challenged, vs vehicle treated PBS or CRA challenged"}, "[4]": {"conditions": "CRA-challenged, vs vehicle treated PBS or CRA challenged"}, "[5]": {"conditions": "H&E lung sections, 0-4 scale, vs vehicle treated PBS or CRA challenged"}}, "data": [{"smiles": "CCCCCC(O)C(O)C/C=C\\CCCCCCCC(=O)O", "note": "(stereo not drawn) [12,13 DiHOME]", "values": [{"measurement": "expression of IL1β in lung", "setting": "CRA-challenged mice; [2]", "value": "increased"}, {"measurement": "frequency of lung resident T cells (CD3+)", "setting": "CRA-challenged mice; [2]", "value": "increased"}, {"measurement": "number of infiltrating cells surrounding the bronchioles", "setting": "CRA-challenged mice; [2]", "value": "increased"}, {"measurement": "number of infiltrating cells surrounding the veins", "setting": "CRA-challenged mice; [2]", "value": "increased"}, {"measurement": "lung Treg frequency", "setting": "CRA-challenged mice; 30 mg kg^−1 peritoneal, CRA-challenged, vs vehicle-treated CRA-challenged", "value": "decreased"}, {"measurement": "serum IgE", "setting": "CRA-challenged mice; 30 mg kg^−1 peritoneal, vs CRA-challenged and PBS-challenged animals", "value": "increased"}, {"measurement": "expression of IL1α in lung", "setting": "CRA-challenged mice; [3]", "value": "increased"}, {"measurement": "expression of TNF in lung", "setting": "CRA-challenged mice; [3]", "value": "increased"}, {"measurement": "frequency of live resident cells in the lungs", "setting": "CRA-challenged mice; [4]", "value": "did not increase"}, {"measurement": "frequency of lung resident monocytes (F4-80+Ly6C+Ly6G-CD11b+)", "setting": "CRA-challenged mice; [4]", "value": "significantly increased"}, {"measurement": "frequency of lung resident neutrophils (Ly6G+CD11b+)", "setting": "CRA-challenged mice; [4]", "value": "significantly increased"}, {"measurement": "frequency of resident lung cells", "setting": "CRA-challenged mice; [4]", "value": "decreased"}, {"measurement": "peribronchial inflammation score", "setting": "CRA-challenged mice; [5]", "value": "increased"}, {"measurement": "perivascular inflammation score", "setting": "CRA-challenged mice; [5]", "value": "increased"}, {"measurement": "frequency of lung resident alveolar macrophages (CD11c+CD11b+F4/80+Siglec-F+)", "setting": "CRA-challenged mice; CRA challenged animals", "value": "decreased"}, {"measurement": "frequency of lung resident alveolar macrophages (CD11c+CD11b+F4/80+Siglec-F+)", "setting": "CRA-challenged mice; PBS challenged animals", "value": "increased"}, {"measurement": "concentration of 12,13 DiHOME in the lungs", "setting": "[1]; 3 hours post-delivery", "value": "significantly increased"}, {"measurement": "concentration of 12,13 DiHOME in the plasma", "setting": "[1]; three hours after injection", "value": "significantly increased"}]}]}
